# How the values were obtained:
# K562 [1] = assay: Cytotoxicity against human K562 cells assessed as cell growth at 10^-7 M after 24 hrs by SRB assay; format: functional; conditions: K562, 24 h, read-out: Activity
# [2] = Cytotoxicity against human SNB75 cells assessed as cell growth at 10^-7 M after 24 hrs by SRB assay; format: functional; conditions: SNB-75, 24 h, read-out: Activity
# MDA-MB-435 = assay: Cytotoxicity against human MDA-MB-435 cells assessed as cell growth at 10^-7 M after 24 hrs by SRB assay; format: functional; conditions: MDA-MB-435, 24 h, read-out: Activity
# [3] = Cytotoxicity against human OVCAR5 cells assessed as cell growth at 10^-7 M after 24 hrs by SRB assay; format: functional; conditions: OVCAR-5, 24 h, read-out: Activity
# [4] = Cytotoxicity against human Caki1 cells assessed as cell growth at 10^-7 M after 24 hrs by SRB assay; format: functional; conditions: CAKI-1, 24 h, read-out: Activity
# NCI-H226 = assay: Cytotoxicity against human NCI-H226 cells after 24 hrs by SRB assay; format: functional; conditions: NCI-H226, 24 h
# [5] = Cytotoxicity against human HCC2998 cells after 24 hrs by SRB assay; format: functional, cell-based; conditions: HCC 2998, 24 h
# [6] = Cytotoxicity against human SF268 cells after 24 hrs by SRB assay; format: functional; conditions: SF-268, 24 h
# [7] = Cytotoxicity against human SF295 cells after 24 hrs by SRB assay; format: functional, cell-based; conditions: SF-295, 24 h
# [8] = Cytotoxicity against human HCT116 cells assessed as cell growth at 10^-4 M after 24 hrs by SRB assay; format: functional; conditions: HCT-116, 24 h, read-out: Activity
# [9] = Cytotoxicity against human SNB75 cells assessed as cell growth at 10^-4 M after 24 hrs by SRB assay; format: functional; conditions: SNB-75, 24 h, read-out: Activity
# [10] = Cytotoxicity against human TK10 cells assessed as cell growth at 10^-7 M after 24 hrs by SRB assay; format: functional; conditions: TK-10, 24 h, read-out: Activity
# [11] = Cytotoxicity against human DU145 cells assessed as cell growth at 10^-7 M after 24 hrs by SRB assay; format: functional; conditions: DU-145, 24 h, read-out: Activity
# A549 = assay: Cytotoxicity against human A549 cells assessed as cell growth at 10^-6 M after 24 hrs by SRB assay; format: functional; conditions: A549, 24 h, read-out: Activity
# [12] = Cytotoxicity against human PC3 cells assessed as cell growth at 10^-4 M after 24 hrs by SRB assay; format: functional; conditions: PC-3, 24 h, read-out: Activity
# T47D [13] = assay: Cytotoxicity against human T47D cells assessed as cell growth at 10^-4 M after 24 hrs by SRB assay; format: functional; conditions: read-out: Activity
# NCI-H522 = assay: Cytotoxicity against human NCI-H522 cells assessed as cell growth at 10^-6 M after 24 hrs by SRB assay; format: functional; conditions: NCI-H522, 24 h, read-out: Activity
# [14] = Cytotoxicity against human HCT15 cells assessed as cell growth at 10^-6 M after 24 hrs by SRB assay; format: functional; conditions: HCT-15, 24 h, read-out: Activity
# [15] = Cytotoxicity against human SF295 cells assessed as cell growth at 10^-6 M after 24 hrs by SRB assay; format: functional; conditions: SF-295, 24 h, read-out: Activity
# [16] = Cytotoxicity against human SNB75 cells assessed as cell growth at 10^-6 M after 24 hrs by SRB assay; format: functional; conditions: SNB-75, 24 h, read-out: Activity
# SK-MEL-2 = assay: Cytotoxicity against human SK-MEL-2 cells assessed as cell growth at 10^-6 M after 24 hrs by SRB assay; format: functional; conditions: SK-MEL-2, 24 h, read-out: Activity
# SK-MEL-28 = assay: Cytotoxicity against human SK-MEL-28 cells assessed as cell growth at 10^-6 M after 24 hrs by SRB assay; format: functional; conditions: SK-MEL-28, 24 h, read-out: Activity
# [17] = Cytotoxicity against human NCI-ADR-RES cells assessed as cell growth at 10^-6 M after 24 hrs by SRB assay; format: functional; conditions: read-out: Activity
# MCF7 = assay: Cytotoxicity against human MCF7 cells assessed as cell growth at 10^-6 M after 24 hrs by SRB assay; format: functional; conditions: MCF7, 24 h, read-out: Activity
# [18] = Cytotoxicity against human UACC257 cells after 24 hrs by SRB assay; format: functional; conditions: UACC-257, 24 h
# T47D [19] = assay: Cytotoxicity against human T47D cells after 24 hrs by SRB assay; format: functional
# [20] = Cytotoxicity against human RPMI8226 cells assessed as cell growth at 10^-8 M after 24 hrs by SRB assay; format: functional; conditions: RPMI-8226, 24 h, read-out: Activity
# NCI-H23 = assay: Cytotoxicity against human NCI-H23 cells assessed as cell growth at 10^-8 M after 24 hrs by SRB assay; format: functional; conditions: NCI-H23, 24 h, read-out: Activity
# KM12 = assay: Cytotoxicity against human KM12 cells assessed as cell growth at 10^-8 M after 24 hrs by SRB assay; format: functional; conditions: KM12, 24 h, read-out: Activity
# [21] = Cytotoxicity against human SNB75 cells assessed as cell growth at 10^-8 M after 24 hrs by SRB assay; format: functional; conditions: SNB-75, 24 h, read-out: Activity
# K562 [22] = assay: Cytotoxicity against human K562 cells assessed as cell growth at 10^-5 M after 24 hrs by SRB assay; format: functional; conditions: K562, 24 h, read-out: Activity
# [23] = Cytotoxicity against human RPMI8226 cells assessed as cell growth at 10^-5 M after 24 hrs by SRB assay; format: functional; conditions: RPMI-8226, 24 h, read-out: Activity
# [24] = Cytotoxicity against human OVCAR8 cells assessed as cell growth at 10^-5 M after 24 hrs by SRB assay; format: functional; conditions: OVCAR-8, 24 h, read-out: Activity
# MDA-MB-231 = assay: Cytotoxicity against human MDA-MB-231 cells assessed as cell growth at 10^-5 M after 24 hrs by SRB assay; format: functional; conditions: MDA-MB-231, 24 h, read-out: Activity
# [25] = Cytotoxicity against human Hs 578T cells assessed as cell growth at 10^-5 M after 24 hrs by SRB assay; format: functional; conditions: read-out: Activity
# [26] = read-out: LC50 (the source's name)
# [27] = read-out: pLC50 (the source's name) (converted)
compound,measurement,setting,value
O=C(Nc1cc(-c2cccnc2)nc(NCCCN2CCOCC2)n1)c1cc(Br)cc(C(F)(F)F)c1,growth at 0.1 µM,K562 [1],91%
same,growth at 0.1 µM,[2],84%
same,growth at 0.1 µM,MDA-MB-435,92%
same,growth at 0.1 µM,[3],92%
same,growth at 0.1 µM,[4],90%
same,GI50,NCI-H226; read-out: GI50,9.3 µM
same,CC50,NCI-H226; [26],52.3 µM
same,TGI,NCI-H226; read-out: TGI,22.7 µM
same,GI50,NCI-H226; read-out: pGI50 (converted),9.33 µM
same,CC50,NCI-H226; [27],52.5 µM
same,TGI,NCI-H226; read-out: pTGI (converted),22.9 µM
same,GI50,[5],1.78 µM
same,CC50,[5]; [26],6.89 µM
same,TGI,[5]; read-out: TGI,3.49 µM
same,CC50,[5]; [27],6.92 µM
same,TGI,[5]; read-out: pTGI (converted),3.47 µM
same,GI50,[6]; read-out: GI50,2.63 µM
same,CC50,[6]; [26],37.8 µM
same,TGI,[6]; read-out: TGI,10.4 µM
same,GI50,[6]; read-out: pGI50 (converted),2.63 µM
same,CC50,[6]; [27],38 µM
same,TGI,[6]; read-out: pTGI (converted),10.5 µM
same,GI50,[7]; read-out: GI50,1.94 µM
same,CC50,[7]; [26],7.97 µM
same,TGI,[7]; read-out: TGI,3.93 µM
same,GI50,[7]; read-out: pGI50 (converted),1.95 µM
same,CC50,[7]; [27],7.94 µM
same,TGI,[7]; read-out: pTGI (converted),3.89 µM
same,growth at 100 µM,[8],-88%
same,growth at 100 µM,[9],-99%
same,growth at 0.1 µM,[10],91%
same,growth at 0.1 µM,[11],105%
same,growth at 1 µM,A549,119%
same,growth at 100 µM,[12],-93%
same,growth at 100 µM,T47D [13],-83%
same,growth at 1 µM,NCI-H522,83%
same,growth at 1 µM,[14],82%
same,growth at 1 µM,[15],97%
same,growth at 1 µM,[16],74%
same,growth at 1 µM,SK-MEL-2,94%
same,growth at 1 µM,SK-MEL-28,89%
same,growth at 1 µM,[17],88%
same,growth at 1 µM,MCF7,77%
same,GI50,[18]; read-out: GI50,2.1 µM
same,CC50,[18]; [26],6.8 µM
same,TGI,[18]; read-out: TGI,3.78 µM
same,GI50,[18]; read-out: pGI50 (converted),2.09 µM
same,CC50,[18]; [27],6.76 µM
same,TGI,[18]; read-out: pTGI (converted),3.8 µM
same,GI50,T47D [19]; read-out: GI50,3.72 µM
same,CC50,T47D [19]; [26],48.5 µM
same,TGI,T47D [19]; read-out: TGI,16.1 µM
same,GI50,T47D [19]; read-out: pGI50 (converted),3.72 µM
same,CC50,T47D [19]; [27],49 µM
same,TGI,T47D [19]; read-out: pTGI (converted),16.2 µM
same,growth at 0.01 µM,[20],103%
same,growth at 0.01 µM,NCI-H23,98%
same,growth at 0.01 µM,KM12,99%
same,growth at 0.01 µM,[21],88%
same,growth at 10 µM,K562 [22],4%
same,growth at 10 µM,[23],-1%
same,growth at 10 µM,[24],-7%
same,growth at 10 µM,MDA-MB-231,-59%
same,growth at 10 µM,[25],-7%

# Source: ChEMBL document CHEMBL3774345, “Synthesis of new diarylamides with pyrimidinyl pyridine scaffold and evaluation of their anti-proliferative effect on cancer cell lines” (Bioorg Med Chem Lett, 2016)
